According to US8835403B2, “Algin oligosaccharides and the derivatives thereof as well as the manufacture and the use of the same” (priority 2004, dated 2014):

Tests used:
[1] = tested on: apoptotic cascade induced by Aβ; experiment: Apoptotic cascade markers induced by Aβ; assay type: cell-based
[2] = tested on: AD mice induced by Aβ1-40; experiment: Step-through passive avoidance task of AD mice induced by Aβ1-40; assay type: in vivo
Procedure: (§1) Male Balb/c mice (18-22 g, purchased from Laboratory Centre of Shandong University) are weighed and randomly assigned to six groups as follows: a control group, a model group, a low-concentration (15 mg/kg) 6-mer-treated group, a middle-concentration (30 mg/kg) 6-mer-treated group, a high-concentration (60 mg/kg) 6-mer-treated group, and a Huperzine A-treated (HBY, with a concentration of 0.2 mg/kg) group. The mice were oral administered with corresponding drugs on day 3 after grouping. The drugs were administered once a day consecutively with a dosage of 0.5 ml/20 g until the experiment is completed. The mice of control and model groups were simultaneously administered with an equivalent amount of normal saline.
On the 25th day after Aβ injection, mice are further trained for step-through passive avoidance task. In the task, each mouse is placed in the illuminated compartment of the apparatus, facing away from the dark compartment, and the door is opened, allowing access to the dark compartment. Once the mouse enters the dark compartment, it receives an inescapable electric shock on the feet (36 V) through the stainless steel grid floor. The test is similarly performed after 24 h. The entry time of each mouse into the dark chamber (step-through latency, maximum testing limited to 3 min) and the number of entries into the dark compartment (number of errors) are recorded.
Each group has 8 animals. The data are presented as mean±SE. The symbol # means significant difference compared with the control group (P<0.05). * means significant difference compared with the model group (P<0.05). The step-through latency of Aβ1-40-treated group is shortened (P<0.01) and the error number is increased (P<0.05) compared with that of the control group, indicating the successful establishment of AD mice.

Aβ1-40 [3] = target: T1, Aβ1-40 (Homo sapiens, UniProt P05067); experiment: SPR interaction of immobilized 6-mer and aged Aβ1-40; assay type: binding
T1 sequence (P05067 672-711 limits assumed): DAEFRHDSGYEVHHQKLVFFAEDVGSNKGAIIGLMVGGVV
Procedure: SPR technique (BIAcore X, Uppsala, Sweden) is used to characterize the interaction of 6-mer and Aβ. Different degree of aged Aβ1-40 (aged for 0, 0.5, 1, 2, 4, 6 d at 37° C.) in HBS EP buffer solution (0.01 […], 150 mmol/L NaCl, 3.4 mmol/L EDTA-Na2, 0.005 vol % Tween-20, pH 7.4) with 5 concentrations are flowed through the 6-mer-immobilized sensor chip. The flow rate is 5 μl/min, and the injection volume is 10 μl. The binding sensorgramm is recorded and the sensor chip is regenerated with 2M NaCl.

[4] = tested on: AD mice induced by Aβ1-40; experiment: Morris water maze test of AD mice induced by Aβ1-40; assay type: in vivo; conditions: for Escape latency (s) 1st day: 1st day of test; for Escape latency (s) 2nd day: 2nd day of test; for Escape latency (s) 3rd day: 3rd day of test; for Latency bias(%): probe trial, 4th day, within 60 s
Procedure: as §1
On the 8th day after drug administration, mice are injected with aged Aβ1-40 except the vehicle group as the method of reference (Jhoo J H et al., β-amyloid (1-42)-induced learning and memory deficits in mice: involvement of oxidative burdens in the hippocampus and cerebral cortex. Behavioural Brain Research (2004) 155: 185-196) to induce the AD model. Aged Aβ1-40 solution is injected into the right cerebral ventricle. […] However, on the 1st day of test, this increased escape latency is shortened in all drug-treated groups except the group treated with 15 mg/kg of 6-mer. And the escape latency of 60 mg/kg 6-mer-treated group has statistical significance compared with that of the model group (P<0.05). On the 2nd and 3rd day of test, the escape latency of all drug-treated groups are shortened, wherein that of 60 mg/kg 6-mer-treated group and HBY-treated group have statistical significance compared with that of the model group (P<0.05).
On the 4th day of Morris water maze test, the original plate is removed and the percentage of time of mice staying at the phase of original plate within 60 s is recorded.

Aβ1-40 [5] = target: T1, Aβ1-40; experiment: Conformation of Aβ1-40 by CD spectra; assay type: biochemical; conditions: 6-mer 100 μg/ml, Aβ1-40 250 μg/ml, 37° C., 12 h (FIG. 11C)
Procedure: CD spectra (J-[…], JASCO, Japan) of monomeric Aβ1-40 (250 μg/ml in TBS (100 mM Tris, 50 mM NaCl, pH7.4)) incubated at 37° C. for 12 h is mainly characterized by β-sheet secondary structure (FIG. 11A).

GSH-PX = GSH-PX activity in cerebral cortex and hippocampus of Aβ1-40-induced AD mice; assay type: in vivo
Procedure: Following the behavioral test, rats are decapitated. Cerebral cortex and hippocampus are dissected on ice immediately, and stored at −80° C. after quick freezing in liquid nitrogen for 1 hour. MDA, SOD, GSH-PX, Na^+, K^+-ATPase, AchE and CHAT activities in the brain regions are determined using the respective kits. The homogenates of cerebral cortex and hippocampus are prepared with saline with a final concentration of 10% and 5%. The supernatant were obtained after centrifuging at 3600 rpm to test MDA, CuZn-SOD, GSH-PX, Na^+K^+-ATPase, AchE, and CHAT activities. The activity of ChAT is determined with isotope-labeled method. The other indexes and amount of total proteins are tested with the respective kits supplied by Nanjing Jiancheng Bioengineering Institute.
The GSH-PX activity in cerebral cortex and hippocampus is decreased after usage of Aβ with significant difference to the control group in hippocampus (p<0.05).

SMILES: O=C(O)C1OC(OC2C(C(=O)O)OC(OC3C(C(=O)O)OC(OC4C(C(=O)O)OC(OC5C(C(=O)O)OC(OC6C(C(=O)O)OC(O)C(O)C6O)C(O)C5O)C(O)C4O)C(O)C3O)C(O)C2O)C(O)C(O)C1O (stereo not shown) [6-mer, mannuronic hexasaccharide]
- expression of Bcl-2 [1]: up-regulating
- expression of Caspase-3 [1]: down-regulating
- expression of P53 [1]: down-regulating
- overload of intracellular calcium ion and ROS accumulation [1]: reversing
- number of errors ([2]; 6-mer-treated groups, vs model group (FIG. 6)): significantly reduced
- step-through latency ([2]; 30 and 60 mg/kg 6-mer, vs model group (FIG. 5)): significantly prolonged
- Kd (Aβ1-40 [3]; Aβ1-40 aged 0.5 d at 37° C.): 107 nM
- Kd (Aβ1-40 [3]; Aβ1-40 aged 1 d at 37° C.): 90.6 nM
- Kd (Aβ1-40 [3]; Aβ1-40 aged 2 d at 37° C.): 54.3 nM
- Kd (Aβ1-40 [3]; Aβ1-40 aged 4 d at 37° C.): 21.5 nM
- Kd (Aβ1-40 [3]; Aβ1-40 aged 6 d at 37° C.): 14.5 nM
- Kd (Aβ1-40 [3]; fresh Aβ1-40 (aged 0 d)): 685 nM
- Escape latency (s) 1st day ([4]; 6-mer 15 mg/kg oral once a day): 90.07 ± 10.71 s
- Escape latency (s) 2nd day ([4]; 6-mer 15 mg/kg oral once a day): 83.29 ± 9.53 s
- Escape latency (s) 3rd day ([4]; 6-mer 15 mg/kg oral once a day): 72.83 ± 12.50 s
- Escape latency (s) 1st day ([4]; 6-mer 30 mg/kg oral once a day): 77.71 ± 8.69 s
- Escape latency (s) 2nd day ([4]; 6-mer 30 mg/kg oral once a day): 71.69 ± 10.11 s
- Escape latency (s) 3rd day ([4]; 6-mer 30 mg/kg oral once a day): 68.45 ± 14.46 s
- Escape latency (s) 1st day ([4]; 6-mer 60 mg/kg oral once a day): 56.92 ± 9.92 s
- Escape latency (s) 2nd day ([4]; 6-mer 60 mg/kg oral once a day): 63.57 ± 10.54 s
- Escape latency (s) 3rd day ([4]; 6-mer 60 mg/kg oral once a day): 62.50 ± 13.10 s
- Latency bias(%) ([4]; 15 mg/kg): 19.67 ± 5.15%
- Latency bias(%) ([4]; 30 mg/kg): 22.99 ± 5.79%
- Latency bias(%) ([4]; 60 mg/kg): 28.44 ± 6.08 %
- β-sheet formation of monomeric Aβ1-40 (CD) (Aβ1-40 [5]): prevents the β-sheet formation
- GSH-PX (U/mg prot.) cerebral cortex (GSH-PX; 15 mg/kg): 8.53 ± 0.86 U/mg prot.
- GSH-PX (U/mg prot.) cerebral cortex (GSH-PX; 30 mg/kg): 7.12 ± 1.10 U/mg prot.
- GSH-PX (U/mg prot.) cerebral cortex (GSH-PX; 60 mg/kg): 10.75 ± 1.80 U/mg prot.
- GSH-PX (U/mg prot.) hippocampus (GSH-PX; 15 mg/kg): 4.13 ± 0.58 U/mg prot.
- GSH-PX (U/mg prot.) hippocampus (GSH-PX; 30 mg/kg): 4.25 ± 0.54 U/mg prot.
- GSH-PX (U/mg prot.) hippocampus (GSH-PX; 60 mg/kg): 4.81 ± 0.95 U/mg prot.
